# Assay results reported in patent publication US10654814B2, “Bicyclic hydroxamic acids useful as inhibitors of mammalian histone deacetylase activity” (KANCERA AB, priority 2015, dated 2020).
# Where a name gives a salt, the structure may show the parent alone.
# Biological target: HDAC6 (Homo sapiens (Human), UniProt Q9UBN7)
# Experiment: HDAC6 in vitro enzymatic assay (fluorescence)
# Format: biochemical
# Conditions: Table 3; read-out: IC50 (nM) for inhibition of HDAC6
# Procedure: Biological Tests Method for Measurement of Enzymatic Activity of HDACs Materials & Methods
# All Examples were tested in HDAC1,2,3,6 and 8 in vitro enzymatic assays. The assay principle is well known (Hauser et al. 2009, Bradner et al. 2010) and all necessary reagents like enzymes, substrates, developer and reference compounds are commercially available (see e.g. BPS Biosciences http://www.bpsbioscience.com/). Stock solutions (10 mM in DMSO) of compounds were serially diluted 1:3 in 11 concentrations with a top concentration of 200 μM for HDAC1,2,3 and 2 μM for HDAC6 and HDAC8. The enzymatic reactions were conducted in a mixture containing assay buffer, bovine serum albumin, HDAC substrate, and a test compound. After enzymatic reaction, developer was added and after an additional incubation time, fluorescence intensity was measured at an excitation wavelength of 360 nm and an emission wavelength of 460 nm. All experiments were performed in duplicate.
# Sequence of HDAC6 (Q9UBN7 whole entry): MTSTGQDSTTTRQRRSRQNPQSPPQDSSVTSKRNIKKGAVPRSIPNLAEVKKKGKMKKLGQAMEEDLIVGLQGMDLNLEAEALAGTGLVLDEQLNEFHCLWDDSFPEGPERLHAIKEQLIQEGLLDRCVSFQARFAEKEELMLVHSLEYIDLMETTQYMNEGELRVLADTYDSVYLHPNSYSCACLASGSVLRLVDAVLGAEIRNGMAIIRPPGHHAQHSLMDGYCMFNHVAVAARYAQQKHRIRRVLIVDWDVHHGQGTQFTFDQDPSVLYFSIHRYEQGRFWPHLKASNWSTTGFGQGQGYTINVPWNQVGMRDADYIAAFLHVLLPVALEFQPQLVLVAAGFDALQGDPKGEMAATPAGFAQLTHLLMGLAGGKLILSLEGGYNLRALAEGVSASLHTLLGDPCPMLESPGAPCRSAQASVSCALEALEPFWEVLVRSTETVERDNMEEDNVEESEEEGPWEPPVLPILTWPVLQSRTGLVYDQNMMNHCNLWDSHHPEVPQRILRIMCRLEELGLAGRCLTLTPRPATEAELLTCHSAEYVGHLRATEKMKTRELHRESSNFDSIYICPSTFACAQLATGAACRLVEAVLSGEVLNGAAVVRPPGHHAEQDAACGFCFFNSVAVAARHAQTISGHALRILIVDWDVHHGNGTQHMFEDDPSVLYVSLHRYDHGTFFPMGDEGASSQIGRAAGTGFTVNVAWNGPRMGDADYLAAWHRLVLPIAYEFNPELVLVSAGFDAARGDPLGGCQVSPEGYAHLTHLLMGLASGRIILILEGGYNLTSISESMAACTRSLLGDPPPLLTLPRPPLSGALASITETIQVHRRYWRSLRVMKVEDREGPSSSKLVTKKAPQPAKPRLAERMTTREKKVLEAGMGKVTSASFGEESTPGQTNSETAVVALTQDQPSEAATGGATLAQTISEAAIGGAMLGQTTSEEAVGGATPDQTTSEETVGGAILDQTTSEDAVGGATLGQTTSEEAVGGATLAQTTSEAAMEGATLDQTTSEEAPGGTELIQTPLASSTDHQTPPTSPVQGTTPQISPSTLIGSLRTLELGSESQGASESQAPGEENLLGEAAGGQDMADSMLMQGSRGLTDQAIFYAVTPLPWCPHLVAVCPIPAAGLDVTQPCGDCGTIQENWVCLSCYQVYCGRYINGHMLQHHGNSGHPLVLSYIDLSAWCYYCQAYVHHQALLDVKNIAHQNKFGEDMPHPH
row,IC50 [nM],SMILES
1,4,"O=C(NO)c1ccc2oc(-c3ccc(Br)cc3)nc2c1 [Example 2, 2-(4-bromophenyl)-N-hydroxy-1,3-benzoxazole-5-carboxamide]"
2,36,"O=C(NO)c1ccc2oc(-c3ccc(F)c(F)c3)nc2c1 [Example 5, 2-(3,4-difluorophenyl)-N-hydroxy-1,3-benzoxazole-5-carboxamide]"
3,15,"O=C(NO)c1ccc2oc(-c3ccccc3)nc2c1 [Example 7, N-hydroxy-2-phenyl-1,3-benzoxazole-5-carboxamide]"
4,14,"O=C(NO)c1ccc2oc(-c3ccc4c(c3)OCO4)nc2c1 [Example 8, 2-(1,3-benzodioxo1-5-yl)-N-hydroxy-1,3-benzoxazole-5-carboxamide]"
5,8,"COc1ccc(-c2nc3cc(C(=O)NO)ccc3o2)cc1 [Example 11, N-hydroxy-2-(4-methoxyphenyl)-1,3-benzoxazole-5-carboxamide]"
6,28,"O=C(NO)c1ccc2oc(-c3ccc(N4CCOCC4)nc3)nc2c1 [Example 15, N-hydroxy-2-(6-morpholin-4-ylpyridin-3-yl)-1,3-benzoxazole-5-carboxamide]"
7,7,"O=C(NO)c1ccc2oc(-c3cccc(Br)c3)nc2c1 [Example 16, 2-(3-bromophenyl)-N-hydroxy-1,3-benzoxazole-5-carboxamide]"
8,13,"O=C(NO)c1ccc2oc(-c3ccc(-c4ccncc4)cc3)nc2c1 [Example 22, N-hydroxy-2-(4-pyridin-4-ylphenyl)-1,3-benzoxazole-5-carboxamide]"
9,11,"O=C(NO)c1ccc2oc(-c3ccc(-c4cccnc4)cc3)nc2c1 [Example 23, N-hydroxy-2-(4-pyridin-3-ylphenyl)-1,3-benzoxazole-5-carboxamide]"
10,56,"N#Cc1ccc(-c2nc3cc(C(=O)NO)ccc3o2)cc1 [Example 36, 2-(4-Cyanophenyl)-N-hydroxy-1,3-benzoxazole-5-carboxamide]"
11,26,"O=C(NO)c1ccc2oc(-c3ccc4[nH]nnc4c3)nc2c1 [Example 39, 2-(1H-Benzotriazol-5-yl)-N-hydroxy-1,3-benzoxazole-5-carboxamide]"
12,14,"O=C(NO)c1ccc2oc(Nc3ccccc3)nc2c1 [Example 42, N-Hydroxy-2-(phenylamino)-1,3-benzoxazole-5-carboxamide]"
13,63,"CN(Cc1ccccc1)c1nc2cc(C(=O)NO)ccc2o1 [Example 44, 2-[benzyl(methyl)amino]-N-hydroxy-1,3-benzoxazole-5-carboxamide]"
14,21,"O=C(NO)c1ccc2oc(NCCc3ccccc3)nc2c1 [Example 45, N-hydroxy-2-[(2-phenylethyl)amino]-1,3-benzoxazole-5-carboxamide]"
15,48,"O=C(NO)c1ccc2oc(N3CCc4ccccc4C3)nc2c1 [Example 46, 2-(3,4-dihydroisoquinolin-2(1H)-yl)-N-hydroxy-1,3-benzoxazole-5-carboxamide]"
16,31,"O=C(NO)c1ccc2oc(Nc3cccc(OCc4ccccc4)c3)nc2c1 [Example 47, 2-{[3-(benzyloxy)phenyl]amino}-N-hydroxy-1,3-benzoxazole-5-carboxamide]"

row,SMILES,IC50 [nM]
1,"O=C(NO)c1ccc2oc(-c3ccc(-c4ccc(CN5CCCCC5)cc4)cc3)nc2c1 [Example 30, N-Hydroxy-2-[4′-(piperidin-1-ylmethyl)biphenyl-4-yl]-1,3-benzoxazole-5-carboxamide trifluoroacetate]",14
2,"CCN(CC)c1ccc(-c2nc3cc(C(=O)NO)ccc3o2)cc1 [Example 33, 2-[4-(Diethylamino)phenyl]-N-hydroxy-1,3-benzoxazole-5-carboxamide trifluoroacetate]",22
3,"Cc1ncccc1-c1nc2cc(C(=O)NO)ccc2o1 [Example 40, N-Hydroxy-2-(2-methylpyridin-3-yl)-1,3-benzoxazole-5-carboxamide trifluoroacetate]",54
4,"O=C(NO)c1ccc2oc(-c3ccc(N4CCCC4)nc3)nc2c1 [Example 41, N-Hydroxy-2-(6-pyrrolidin-1-ylpyridin-3-yl)-1,3-benzoxazole-5-carboxamide trifluoroacetate]",22
